In patent US20220325242A1, “IDH2 INHIBITION FOR PRODUCING T-CELLS AND B-CELLS WITH A MEMORY PHENOTYPE” (Universite de Lausanne, priority 2019, published 2022):

Tests used:
[1] = test system: OT1 CD8+ T-cells; assay: Flow cytometry of surface activation and memory markers on in vitro cultured OT1 CD8+ T-cells; assay type: cell-based, mouse; details: 5 μM inhibitor day 0-3, flow cytometry on day 3 and 7
Protocol: Example 2. In vitro culture of splenocytes comprising CD8+ T-cells. OT1 splenocytes (as described in Example 1) were cultured for 3 days at a concentration of 10^6 cells per mL in RPMI medium (Gibco 61870-01) supplemented with 10% FCS, (Gibco 10270-106), 1% Penicillin/Streptomycin (P/S; Gibco 15070-063), 0.1% 13-mercaptoethanol, 1% HEPES (Gibco 15630-080), 1× Non-essential amino acids (Gibco 11140-035), 1% L-glutamine (Gibco 25030-081), 1 mM Sodium Pyruvate (Gibco 11360-039), 100 U/m1 hIL-2 (Glaxo-IMB) and 1 μg/ml ovalbumin N4 peptide (SIINFEKL). To evaluate the effects of IDH2 inhibition on T-cell differentiation, 5 μM of a small molecule IDH2 inhibitor (AG221 or AGI6780) or a DMSO solvent control was added during this 3-day culture period. At day 3, a fraction of the splenocytes was collected and the remaining cells were cultured for 4 additional days with 100 U/ml hIL-2 and 10 ng/ml hIL-7 (Peprotech 200-07) supplementation after washing out the inhibitors and the ovalbumine N4 peptide (FIG. 1). At day 3 and day 7, the activation and differentiation state of CD8+ T-cells was determined by gene expression analysis, flow cytometry and extracellular metabolic flux analyses (see Example 3).
Cells were incubated in a live/dead stain (Fixable aqua dead cell stain kit, Invitrogen) followed by an incubation with different antibody panels.
Antibody panel to determine the differentiation and activation state of in vitro cultured T-cells (see Examples 2 and 4): anti-CD8-PE-texas-Red, anti-CD62L-FITC, anti-CD127-PE, anti-CD27-PerCP-Cy5.5, anti-CD71-PE-Cy7, anti-CD44-APC-Cy7, anti-CD98-APC, anti-CD25-Pacific blue (BD Pharmingen and eBioscience, San Diego, Calif., USA). All those antigens are surface molecules. Cells were gated on living single CD8+ cells before analysis of activation and memory marker expression. For the unstained control, cells were stained with the live/dead stain and anti-CD8-PE-texas-Red.
Cells were acquired on LSR-II flow cytometers from the flow cytometry facility of UNIL and data were analyzed with FlowJo™ 10 software. Antibodies were purchased from BD Phamingen (San Diego, Calif., USA), eBioscience (San Diego, Calif., USA, and Biolegend (San Diego, Calif., USA).

[2] = test system: human CD8+ T-cells; assay: Cytokine expression after PMA and Ionomycin restimulation of human CBMC-derived T-cells; assay type: cell-based; details: day 11 cells, inhibitors washed out, PMA and ionomycin 4 hours
Protocol: (§1) Methods: Mononuclear Cells were isolated from fresh umbilical cord blood on a Percoll Gradient (CBMCs). 10^4 CBMC's were seeded per well in a round bottom 96-well plate in RPMI with 10% human serum, and activated with (magnetic) αCD3/CD28 at a 1:2 cell:bead ratio and 300 U/ml rhIL-2, in the presence of 5 μM AG221 or DMSO, or 1 μM MK2206 (AKT inhibitor). After 11 days of culture, CD62L expression was analyzed by flow cytometry on a fraction of the cells (FIG. 15A). The other cells were washed 2 times and placed in a magnet to remove the inhibitors and the αCD3/CD28 beads. The cells were then rested for 4 hours before restimulating them for 4 hours with 1 ng/ml Phorbol 12-Myristate 13-Acetate (PMA, a PKC activator) and 50 μg/ml Ionomycin (a Ca^2+ ionophore, activating NF-KB and NFAT) in the presence of 50 μ/ml golgi inhibitor (Brefeldin A, BFA), allowing for the measurement of intracellular accumulation of different cytokines by flow cytometry.

[3] = test system: human CD8+ T-cells from umbilical cord blood; assay: CD62L flow cytometry of human cord blood mononuclear cells (CBMC); assay type: cell-based; details: day 11; AG221 5 μM, MK2206 1 μM; DMSO control about 35%
Protocol: as §1

Row | Compound | CD62L surface expression compared to DMSO [1] | other surface markers (CD25, CD44, CD71, CD98, CD27, CD127) compared to DMSO [1] | TNF expression upon restimulation [2] | expression of effector cytokine IFNγ upon restimulation [2] | production of IL-2 upon restimulation [2] | CD8+ cells expressing CD62L [3]
1 | O=C(Nc1cccc(C(F)(F)F)c1)Nc1cc(S(=O)(=O)NC2CC2)ccc1-c1ccsc1 [AGI6780, 1-[5-(cyclopropylsulfamoyl)-2-thiophen-3-ylphenyl]-3-[3-(trifluoromethyl)phenyl]urea] | increased | generally unchanged | – | – | – | –
2 | NC1(c2ccc(-c3nc4ccn5c(=O)[nH]nc5c4cc3-c3ccccc3)cc2)CCC1 [MK2206] | – | – | unaffected | detrimental | unaltered | about 75%
